Data: PubChem BioAssay (NCI)
Where “and” joins values, the source holds several entries; their conditions need not be identical. Equal values may be shown once.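 Growth conditions: 96-well plates. Treatment: test compound, 48 hours, 5 concentrations. Analysis: linear interpolation between bracketing concentrations; unreached endpoints set to highest concentration. GI50 marks 50% less growth. TGI: total growth inhibition.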

Assays:
Experiment in all cases: growth of human tumour cells (NCI), 48 h
U251 CNS = system: U251 CNS
SK-MEL-5 melanoma = system: SK-MEL-5 melanoma
SF-539 CNS = system: SF-539 CNS
SNB-75 CNS = system: SNB-75 CNS
NCI-H23 lung = system: NCI-H23 lung
RPMI-8226 leukemia = system: RPMI-8226 leukemia
UACC-62 melanoma = system: UACC-62 melanoma
HCT-15 colon = system: HCT-15 colon
SN12C renal = system: SN12C renal
NCI/ADR-RES ovarian = system: NCI/ADR-RES ovarian
ACHN renal = system: ACHN renal

| SMILES | TGI (U251 CNS) [µM] | TGI (SK-MEL-5 melanoma) | TGI (SF-539 CNS) [µM] | TGI (SNB-75 CNS) [µM] | TGI (NCI-H23 lung) [µM] | TGI (RPMI-8226 leukemia) | TGI (UACC-62 melanoma) [µM] | TGI (HCT-15 colon) [µM] | TGI (SN12C renal) [µM] | TGI (NCI/ADR-RES ovarian) [µM] | TGI (ACHN renal) [µM] | GI50 (U251 CNS) [µM] | GI50 (SK-MEL-5 melanoma) [µM] | GI50 (SF-539 CNS) [µM] | GI50 (NCI-H23 lung) [µM] | GI50 (RPMI-8226 leukemia) [µM] | GI50 (UACC-62 melanoma) [µM] | GI50 (HCT-15 colon) [µM] | GI50 (SN12C renal) [µM] | GI50 (NCI/ADR-RES ovarian) [µM] |
| --- | --- | --- | --- | --- | --- | --- | --- | --- | --- | --- | --- | --- | --- | --- | --- | --- | --- | --- | --- | --- |
| C[Si](C)(OCCS(=O)(=O)O)C1(Cc2cccc3ccccc23)S(=O)(=O)OCCOS1(=O)=O | 63.7 | 31.1 µM | 39.5 | 55.1 | 96 | 57 µM | 43 | 52.1 | 41.3 | > 100 | 51.9 |  |  |  |  |  |  |  |  |  |
| COc1ccc(-n2cnnc2-c2nsc3ccccc23)cc1 | > 100 | > 100 µM | > 100 | 59.2 | > 100 | > 100 µM | > 100 | > 100 | > 100 |  | > 100 |  |  |  |  |  |  |  |  |  |
| CC(C)OP(=O)(OC(C)C)/C(I)=N/Nc1ccc([N+](=O)[O-])cc1 | > 100 | > 100 µM | > 100 | > 100 | > 100 | > 100 µM | > 100 | > 100 | > 100 |  | > 100 |  |  |  |  |  |  |  |  |  |
| CC(NC(=O)C(C)NC(=O)C(N)CCP(C)(=O)O)C(=O)O (centres undefined) | > 100 | > 100 µM | > 100 | > 100 | > 100 | > 100 µM | > 100 | > 100 | > 100 | > 100 |  |  |  |  |  |  |  |  |  |  |
| Nc1nc(SCc2ccc([N+](=O)[O-])cc2)nc2c1ncn2C1OC(COP(=O)(O)O)C(O)C1O (centres undefined) | > 100 | > 100 µM | > 100 | > 100 | > 100 |  | > 100 | > 100 | > 100 |  | > 100 |  |  |  |  |  |  |  |  |  |
| Cc1ccc(N=N/C(=N\NC(=O)c2ccc(C)cc2)c2ccc(N(CCC#N)CCC#N)cc2C)cc1 | > 100 | > 100 µM | 45.1 | > 100 | > 100 | > 100 µM | 56.7 | > 100 |  | > 100 | > 100 |  |  |  |  |  |  |  |  |  |
| CCOP(=O)(OCC)/C(C#N)=C/c1cn(C)cn1 | > 100 |  | > 100 | > 100 | > 100 |  | > 100 | > 100 | > 100 | > 100 | > 100 |  |  |  |  |  |  |  |  |  |
| CC1=Nc2nc(Cl)cn2C(=O)C1(Cl)Cl | > 10 | > 10 µM | > 10 | > 10 | > 10 | > 10 µM | > 10 | > 10 | > 10 | > 10 | > 10 |  |  |  |  |  |  |  |  |  |
| N[C@H](C(=O)O)[C@H]1ON=C(Cl)[C@@H]1O | > 550 | > 96.2 µM and 246 µM | > 362 | > 364 | > 550 | > 97.1 µM and 233 µM | > 550 | > 550 | > 550 | > 469 |  | 11.4 | 4.39 | 8.83 | 5.09 | 10.9 | 17.5 | 3.95 | 13.6 | 15.3 |
| Cc1ccc(N2Cc3c(ccc4ccccc34)OP2(=O)Oc2ccc(Cl)c(C)c2)cc1 (centres undefined) | > 100 | > 100 µM | > 100 | > 100 | > 100 | > 22.3 µM | > 100 | > 100 | > 100 | > 100 |  |  |  |  |  |  |  |  |  |  |
